The text below walks through data of patent US20260335468A1, “MOLECULAR RADIOAFTERGLOW PROBES FOR CANCER RADIODYNAMIC THERANOSTICS” (NANYANG TECHNOLOGICAL UNIVERSITY, priority 2023, published 2026).

A short description of one data set: Heat generation study. Format: physicochemical. To be noted: 100 μM, X-ray 5 mGy. The procedure:
IDPASu (100 μM, 100 μL) solution and PBS in a round cap with the diameter of 1 cm were prepared and then irradiated by X-ray at dose of 5 mGy (250 μGy·s^−1 for 20 s), respectively. The temperatures of the IDPASu solution and PBS were recorded by FUR Infrared Camera (FLIR A35-Series, FUR Systems).

A short description of data set [1]: Afterglow through chicken breast tissue (tissue penetration depth study). It counts as physicochemical. The procedure:
IDPASu (100 M, 100 l) solution in a round cap with a diameter of 1 cm was prepared and placed under the chicken breast tissue with different thicknesses (0, 1.0, 2.5, 5.0, 10.0 and 15.0 cm). To avoid the influence of afterglow intensity differences on tissue penetration, the X-ray source (Moxtek, Inc.) and xenon lamp (PLS-SEX300D, Beijing Perfectlight Technology Co., Ltd.) were optimized to ensure that all the samples at 0 cm (without coverage) received the same dose of X-rays (5 mGy, 250 μGy s^−1 for 20 s) or light (180 mW cm^−2 for 20 s) and thus the same afterglow intensity. After the cessation of irradiation, radio afterglow or photoafterglow was detected with or without the chicken breast tissues using the IVIS bioluminescence mode with an open filter and acquisition time of 120 s.
To induce afterglow, IDPASu was irradiated with X-ray or light through chicken breast tissues before signal detection (FIGS. 11a-b). To eliminate the influence of intensity difference on tissue penetration, X-ray and light irradiation were optimized to ensure similar intensity without tissue coverage. […] Radio afterglow of IDPASu was inducible and detectable even through ~15 cm tissue, showing ~4.2-fold higher signal than that of IDPASu without X-ray irradiation and tissue (FIG. 11d).

A short description of data set [2]: Radio afterglow spectra, intensity and half-life of luminophores in PBS after X-ray. Format: physicochemical. The procedure: The optical properties of DPAs and IDPAs were investigated in an aqueous solution (FIGS. 2 and 3). […] Their half-lives ranged from 9.2 to 196.8 min (FIG. 4e).
DPAs or IDPAs (100 μM) in 0.01 M PBS (pH 7.4, 50% DMSO) were irradiated by X-rays at 250 μGy s^−1 for 20 s (total, 5 mGy) under the specific setup parameter of 10 kV and 75 μA. Then, the radio afterglow signal was collected with an IVIS imaging system under the bioluminescence mode with an open filter and an acquisition time of 60 s. Finally, the radio afterglow intensities were quantified by a region-of-interest analysis using Living Image 4.3 software. In addition, the radio afterglow spectra of the candidates were acquired under the same test conditions with specific emission filters, and time courses of the signal were recorded as a function of time.

Data set [3] can be described thus: ·OH and other ROS detection (HPF) upon X-ray irradiation. It counts as physicochemical. The procedure:
To study other ROS generation, fluorescence sensors DHR123 (for O2·^− detection) and HPF (for ·OH detection) were used. For O2·^− detection, DHR123 (10 PM) was added to a solution of IDPASu (10 M) in PBS (0.01 M pH 7.4, 50% DMSO), followed by X-ray irradiation at different doses of 5 mGy (250 μGy s^−1 for 20 s) and 2 Gy (100 mGy s^1 for 20 s). The fluorescence changes in DHR123 were recorded at λex of 505 nm and λem of 534 nm. For ·OH detection, HPF ([…]) was added in a solution of IDPASu (10 M) in PBS (0.01 M, pH 7.4, 50% DMF), followed by X-ray irradiation at different doses, namely, 5 mGy (250 μGy s^−1 for 20 s) and 2 Gy (100 mGy s^−1 for 20 s). The fluorescence changes in HPF were collected at ex of 450 nm and λem of 515 nm. The ROS production was calculated by the corresponding standard curve.

A short description of data set [4]: HPLC analysis of IDPASu after X-ray irradiation. Format: physicochemical. The procedure: HPLC purification and analyses were performed with an Agilent 1260 system using methanol/H2O or acetonitrile/H2O as an eluent. X-ray irradiation was conducted with MOXTEK MAGPRO (Moxtek, Inc. 452 West 1260 North Orem, UT 84057) and the dose was calibrated by RAYSAFE R/F X2 X (FLUKE, USA). White-light irradiation was used by a xenon lamp PLS-SEX300D (Beijing Perfectlight Technology Co., Ltd.).
To study the radio afterglow mechanism, the sample of IDPASu after X-ray irradiation was analysed with HPLC and high-resolution mass spectrometry.

Data set [5] is described as follows: In vivo limit of detection of subcutaneously injected IDPASu (radio afterglow). To be noted: subcutaneous injection, X-ray 5 mGy, LOD=3σ/k. Also noted: species or system mouse (BALB/c nude). The procedure:
To test the LOD of IDPASu for in vivo RAI, 20 μl of the mixture solution of IDPASu at different concentrations (100.0, 50.0, 20.0, 10.0, 5.0, 1.0, 0.5 and 0 μM) and solubilizing agent (2-carboxyethyl)-o-cyclodextrin sodium salt (β-CD) at 100 μM was subcutaneously injected into the left flank of BALB/c nude mice (six weeks old). After 30 min, the left flank of mice were irradiated with X-rays at 5 mGy (250 μGy s^−1 for 20 s) as the other areas were protected by a 3.4-mm-thick lead shield with a notch under the X-ray irradiation. Radio afterglow signals were recorded. The detection limit was calculated using this equation: LOD=3σ/k, where a represents the s.d. of blank and k implies the slope of the radio afterglow intensities.

The mark [6] stands for this setting: X-ray 2 Gy, 100 mGy s^−1 for 20 s.

For the molecule `COC(=C1C2CC3CC(C2)CC1C3)c1cc(O)c(I)cc1/C=C/C1=CC(=C(C#N)C#N)c2ccccc2S1` [IDPASu], the “heat generation upon radiation” value in the data set “Heat generation study” is listed as “did not cause any heat generation”. For the same molecule, the “radio afterglow signal through ~15 cm tissue versus IDPASu without X-ray irradiation and tissue” value in data set [1] (15 cm chicken breast tissue) was ~ 4.2 fold. In data set [1] (X-ray 0.005 Gy), the “penetration depth, Detection with tissue (induction without tissue)” value is given as 15 cm; the “penetration depth, Induction and detection through tissue” value is given as 5 cm. In addition, the “radio afterglow intensity at tissue depth of 1 cm” value in data set [1] (induction by X-ray through tissue, detection without tissue) is on record as ~ 1.79×10^6 photons s^−1 cm^−2 sr^−1. Also, the “photoafterglow intensity at tissue depth of 1 cm” value in data set [1] (induction by light through tissue, detection without tissue) is recorded as 7.20×10^4 photons s^−1 cm^−2 sr^−1. Further, the “radio afterglow intensity increase versus iodine-free counterpart” value in data set [2] (100 μM, PBS pH 7.4, 50% DMSO, X-ray 5 mGy) was 6.46 fold. Besides, the “correlation of radio afterglow signal with concentration” value in data set [2] (IDPASu solution) is “linear correlation”. Besides, in data set [2] (X-ray 250 μGy s^−1 for 20 s), the “long-lasting radio afterglow, up to” value was ~ 25 h. Besides, in data set [2] (X-ray 250 μGy s^−1 for 20 s, aqueous solution), the “radio afterglow emission maximum” value was ~ 773 nm. The “radio afterglow brightness / intensity” value in data set [2] (X-ray irradiation) is on record as “highest brightness”. For the same molecule, the “repetitive induction of radio afterglow” value in data set [2] (after ten cycles of X-ray irradiation) is on record as “minimal intensity decrease after ten cycles”. Moreover, the “HPF+IDPASu (+X-ray) versus HPF+IDPASu (−X-ray), ·OH” value in data set [3] (250 μGy s^−1 or 100 mGy s^−1 for 20 s) is “not significant”. Also, in data set [3] (X-ray irradiation), the “other ROS generation” value is given as “undetectable”. For the same molecule, in data set [4] (setting [6]), the “conversion yield to activated IDPASu (peak at 6.0 min)” value is on record as 7.6% and the “conversion yield to dioxetane compound (peak at 14.8 min)” value worked out at 3.3%. In addition, in data set [4] (one cycle at 250 μGy s^−1 for 20 s, HPLC), the “luminophore consumed by one cycle of irradiation” value was ~ 3%. Moreover, in data set [5], the “limit of detection (LOD), in vivo imaging” value came to 49 nM.
